Assay results: publication PMC10439230 (Scientific Reports, 2023)

Legend:
[1] = tested on: HepG2 (hepatocellular carcinoma); test: Cytotoxic activity assay (MTT); assay type: cell-based, human; details: for IC50: Homo sapiens, HepG2, 48 h exposure, MTT, read-out: Cell lines, IC50 (μM) HepG2; for Selectivity Index (SI) values HepG2: SI = IC50 normal cell (MRC-5)/ IC50 cancer cell
Source text: (§1) The synthetic compounds were screened for their cytotoxic activity using standard MTT or XTT methods[30] against a panel of nine human cancer cell lines and one normal cell line, including MDA-MB-231 (triple-negative breast cancer), T-47D (hormone-dependent breast cancer), HepG2 (hepatocellular carcinoma), A549 (lung adenocarcinoma), H69AR (multidrug-resistant small cell lung carcinoma), HuCCA-1 (cholangiocarcinoma derived from a patient), HeLa (cervical carcinoma), and two leukemia cell lines, HL-60 (acute promyelocytic leukemia) and MOLT-3 (T cell acute lymphoblastic leukemia). MRC-5 normal embryonic lung fibroblast cell line was used to represent normal cells. Chemotherapeutic drugs, doxorubicin and etoposide, were used as positive controls.
(§2) The cells were seeded into 96-well plates (100 µL for adherent cells and 75 µL for suspended cells) at a density of 5000–20,000 cells per well, depending on their growth rates. Adherent and suspended cells were then allowed to grow at 37 °C with 95% humidity and 5% CO2 for 24 h and 30 min, respectively. The cytotoxicity assay was initiated by adding an equal volume of cell culture medium containing tested compound at predetermined concentrations. Following 48 h of exposure, cell viability was determined using MTT assay for adherent cells[51],[52]or XTT assay for suspeended cells. Briefly, for adherent cells, 100 µL of the MTT reagent was added to each well, and the microtiter plates were further incubated for 2.5–4 h. The medium was subsequently replaced with 100 µL of DMSO to dissolve the purple formazan before the absorbance at 550 nm was measured using a microplate reader (a SpectraMax Plus 384) with a reference wavelength of 650 nm. For suspended cells, 75 µL of the XTT reagent was added to each well, and the cells were further incubated for 4 h. Afterwards, the absorbance of orange formazan at 492 nm was measured with a reference wavelength of 690 nm using a microplate reader.

[2] = tested on: H69AR (multidrug-resistant small cell lung carcinoma); test: Cytotoxic activity assay (MTT); assay type: cell-based, human; details: for IC50: Homo sapiens, H69AR, 48 h exposure, MTT, read-out: Cell lines, IC50 (μM) H69AR; for Selectivity Index (SI) values H69AR: SI = IC50 normal cell (MRC-5)/ IC50 cancer cell
Source text: as §1, §2

[3] = tested on: HuCCA-1 (cholangiocarcinoma derived from a patient); test: Cytotoxic activity assay (MTT); assay type: cell-based, human; details: for IC50: Homo sapiens, HuCC-A1, 48 h exposure, MTT, read-out: Cell lines, IC50 (μM) HuCCA-1; for Selectivity Index (SI) values HuCCA-1: SI = IC50 normal cell (MRC-5)/ IC50 cancer cell
Source text: as §1, §2

[4] = tested on: T-47D (hormone-dependent breast cancer); test: Cytotoxic activity assay (MTT); assay type: cell-based, human; details: for IC50: Homo sapiens, T47D, 48 h exposure, MTT, read-out: Cell lines, IC50 (μM) T47-D; for Selectivity Index (SI) values T47-D: SI = IC50 normal cell (MRC-5)/ IC50 cancer cell
Source text: as §1, §2

[5] = tested on: MDA-MB-231 (triple-negative breast cancer); test: Cytotoxic activity assay (MTT); assay type: cell-based, human; details: for IC50: Homo sapiens, MDA-MB-231, 48 h exposure, MTT, read-out: Cell lines, IC50 (μM) MDA-MB-231; for Selectivity Index (SI) values MDA-MB-231: SI = IC50 normal cell (MRC-5)/ IC50 cancer cell
Source text: as §1, §2

[6] = tested on: HeLa (cervical carcinoma); test: Cytotoxic activity assay (MTT); assay type: cell-based, human; details: for IC50: Homo sapiens, 48 h exposure, MTT, read-out: Cell lines, IC50 (μM) HeLa; for Selectivity Index (SI) values HeLa: SI = IC50 normal cell (MRC-5)/ IC50 cancer cell
Source text: as §1, §2

[7] = tested on: A549 (lung adenocarcinoma); test: Cytotoxic activity assay (MTT); assay type: cell-based, human; details: for IC50: Homo sapiens, A549, 48 h exposure, MTT, read-out: Cell lines, IC50 (μM) A549; for Selectivity Index (SI) values A549: SI = IC50 normal cell (MRC-5)/ IC50 cancer cell
Source text: as §1, §2

[8] = tested on: MRC-5 normal embryonic lung fibroblast cell line; test: Cytotoxic activity assay (MTT), normal cells; assay type: cell-based; details: Homo sapiens, MRC5, 48 h exposure, read-out: Cell lines, IC50 (μM) MRC-5
Source text: as §1, §2

[9] = tested on: HL-60 (acute promyelocytic leukemia); test: Cytotoxic activity assay (XTT); assay type: cell-based, human; details: for IC50: Homo sapiens, HL-60, 48 h exposure, XTT, read-out: Cell lines, IC50 (μM) HL-60; for Selectivity Index (SI) values HL-60: SI = IC50 normal cell (MRC-5)/ IC50 cancer cell
Source text: as §1, §2

[10] = tested on: MOLT-3 (T cell acute lymphoblastic leukemia); test: Cytotoxic activity assay (XTT); assay type: cell-based, human; details: for IC50: Homo sapiens, MOLT-3, 48 h exposure, XTT, read-out: Cell lines, IC50 (μM) MOLT-3; for Selectivity Index (SI) values MOLT-3: SI = IC50 normal cell (MRC-5)/ IC50 cancer cell
Source text: as §1, §2

SMILES | IC50 [1] | Selectivity Index (SI) values HepG2 [1] | IC50 [2] | IC50 [3] | Selectivity Index (SI) values HuCCA-1 [3] | IC50 [4] | Selectivity Index (SI) values T47-D [4] | IC50 [5] | Selectivity Index (SI) values MDA-MB-231 [5] | IC50 [6] | Selectivity Index (SI) values HeLa [6] | IC50 [7] | Selectivity Index (SI) values A549 [7] | IC50 [8] | IC50 [9] | Selectivity Index (SI) values HL-60 [9] | IC50 [10] | Selectivity Index (SI) values MOLT-3 [10] | Selectivity Index (SI) values H69AR [2]
COc1cccc2c1C(=O)c1c(O)c3c(c(O)c1C2=O)C[C@@](O)(C(=O)CO)C[C@@H]3O[C@H]1C[C@H](N)[C@H](O)[C@H](C)O1 [DOX, doxorubicin, reference compound] | 0.4 ± 0.02 µM | 1.9 | 38.08 ± 0.29 µM | 0.78 ± 0.06 µM | 1.0 | 0.47 ± 0.03 µM | 1.6 | 2.7 ± 0.16 µM | 0.3 | 0.48 ± 0.01 µM | 1.6 | 0.38 ± 0.03 µM | 2.0 | 0.76 ± 0.05 µM | – | – | – | – | –
C=C1CC[C@H]2C(C)(C)CCC[C@]2(C)[C@H]1CC/C(C)=C/C(=O)NCc1ccccc1 [Compound 4f, (E)-N-Benzyl-3-methyl-5-((1S,4aS,8aS)-5,5,8a-trimethyl-2-methylene-decahydronaphthalen-1-yl)pent-2-enamide] | > 120 µM | 1.0 | > 120 µM | > 120 µM | 1.0 | > 120 µM | 1.0 | > 120 µM | 1.0 | > 120 µM | 1.0 | > 120 µM | 1.0 | > 120 µM | 87.3 ± 8.47 µM | 1.5 | > 120 µM | 1.0 | 1.0
C=C1CCC2C(C)(C)CCCC2(C)C1CCC(C)=CC(=O)O (centres unmarked) [Compound 1, anticopalic acid] | > 120 µM | 1.0 | > 120 µM | 157.1 ± 0.51 µM | 1.0 | > 120 µM | 1.0 | > 120 µM | 1.0 | 145.2 ± 0.31 µM | 1.1 | 159.1 ± 0.78 µM | 1.0 | > 120 µM | 103 ± 10.7 µM | 1.6 | 66.02 ± 0.12 µM | 2.5 | 1.0
C=C1CC[C@H]2C(C)(C)CCC[C@]2(C)[C@H]1CC/C(C)=C/C(=O)NCC(=O)O [Compound 4s, ((E)-3-methyl-5-((1S,4aS,8aS)-5,5,8a-trimethyl-2-methylenedecahydro-naphthalen-1-yl)pent-2-enoyl)glycine] | – | – | > 120 µM | > 120 µM | 1.0 | > 120 µM | 1.0 | > 120 µM | 1.0 | > 120 µM | 1.0 | > 120 µM | 1.0 | > 120 µM | 75.1 ± 3.24 µM | 1.8 | 84.14 ± 0.09 µM | 1.6 | 1.0
COc1cc([C@@H]2c3cc4c(cc3[C@@H](O[C@@H]3O[C@@H]5CO[C@@H](C)O[C@H]5[C@H](O)[C@H]3O)[C@H]3COC(=O)[C@H]23)OCO4)cc(OC)c1O [ETO, etoposide, reference compound] | – | – | – | – | – | – | – | – | – | – | – | – | – | – | 1.21 ± 0.15 µM | – | 0.07 ± 0.12 µM | – | –
